# Assay results taken from US20090312396A1, “METHODS FOR CANCER TREATMENT USING TAK1 INHIBITORS” (AstraZeneca AB, priority 2006, published 2009).
# Read-outs that look alike come from different tables or passages of the source.
# How the values were obtained:
# DOHH2 = test: AlamarBlue proliferation assay, GI50; type: cell-based; details: Homo sapiens, DOHH-2, 72 hours
# Method: (§1) The TAK1 inhibitors are known in the art (see for example, WO 2003010158, WO 2003010163 and WO2004063186 the disclosures of which are incorporated by reference herein). All cell lines were plated at 10,000 cells/well in flat-bottomed 96 well plates and dosed with test compounds in triplicate over a 10 point dosing range from 0 to 30 μmolesL^−1. All cell lines were incubated with test compounds for a total of 72 hours. Background levels were determined for a control (undosed) plate within 2 hours of dosing test compounds. Following the dosing period, the extent of proliferation was measured by adding 1/10 (vol/vol) AlamarBlue reagent to every well and incubating the plates for a further 4 hours. The reaction was stopped by the addition of SDS to a final concentration of 0.1%. Fluorescence was measured at 545 nm (excitation) and 600 nm (emission). Growth inhibition 50 (GI50) values were determined for each test compound across the panel.
# KG1a = test: AlamarBlue proliferation assay, GI50; type: cell-based; details: Homo sapiens, KG-1a, 72 hours, Table 4, read-out: GI50 KG1a AML
# Method: as §1
# Jurkat = test: AlamarBlue proliferation assay, GI50; type: cell-based; details: Homo sapiens, 72 hours, Table 4, read-out: GI50 Jurkat T-ALL
# Method: as §1
# Karpas231 = test: AlamarBlue proliferation assay, GI50; type: cell-based; details: Homo sapiens, 72 hours
# Method: as §1
# SUDHL4 = test: AlamarBlue proliferation assay, GI50; type: cell-based; details: Homo sapiens, SU-DHL-4, 72 hours
# Method: as §1
# MEC1 = test: AlamarBlue proliferation assay, GI50; type: cell-based; details: Homo sapiens, 72 hours
# Method: as §1
# OCI-LY19 = test: AlamarBlue proliferation assay, GI50; type: cell-based; details: Homo sapiens, 72 hours
# Method: as §1
# ARH77 = test: AlamarBlue proliferation assay, GI50; type: cell-based; details: Homo sapiens, ARH-77, 72 hours
# Method: as §1
# WSU-NHL = test: AlamarBlue proliferation assay, GI50; type: cell-based; details: Homo sapiens, 72 hours, Table 4, read-out: GI50 WSU-NHL B-NHL
# Method: as §1
# HEL92.1.7 = test: AlamarBlue proliferation assay, GI50; type: cell-based; details: Homo sapiens, HEL 92.1.7, 72 hours, Table 4, read-out: GI50 HEL92.1.7 Erythroleukemia
# Method: as §1
# Raji = test: AlamarBlue proliferation assay, GI50; type: cell-based, human; details: Homo sapiens, Raji, 72 hours, Table 4, read-out: GI50 Raji Burkitts Lymphoma
# Method: as §1
# TAK1 = target: T1, TAK1 (Homo sapiens, UniProt O43318); test: TAK1 enzyme inhibition; type: biochemical; details: Table 4; read-out: TAK1 pIC50 (enzyme) (converted)
# T1 sequence (O43318 1-606): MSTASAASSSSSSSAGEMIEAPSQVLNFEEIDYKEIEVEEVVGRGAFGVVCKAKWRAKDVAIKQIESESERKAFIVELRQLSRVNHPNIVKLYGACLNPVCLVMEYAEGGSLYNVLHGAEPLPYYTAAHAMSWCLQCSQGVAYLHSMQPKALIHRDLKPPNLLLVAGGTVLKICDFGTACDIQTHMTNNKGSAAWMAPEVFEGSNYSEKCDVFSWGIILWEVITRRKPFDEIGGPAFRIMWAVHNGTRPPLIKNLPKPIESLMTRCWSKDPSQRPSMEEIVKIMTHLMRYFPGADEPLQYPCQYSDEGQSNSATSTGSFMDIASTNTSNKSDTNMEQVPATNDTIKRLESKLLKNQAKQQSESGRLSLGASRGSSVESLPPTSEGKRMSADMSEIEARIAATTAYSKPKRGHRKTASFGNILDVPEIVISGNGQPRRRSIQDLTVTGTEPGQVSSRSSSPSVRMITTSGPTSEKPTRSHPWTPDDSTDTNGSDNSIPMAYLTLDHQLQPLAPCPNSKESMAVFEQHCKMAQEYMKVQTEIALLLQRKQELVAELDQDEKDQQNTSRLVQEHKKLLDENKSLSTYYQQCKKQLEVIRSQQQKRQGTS
# T1 sequence (Q15750 1-504 partner): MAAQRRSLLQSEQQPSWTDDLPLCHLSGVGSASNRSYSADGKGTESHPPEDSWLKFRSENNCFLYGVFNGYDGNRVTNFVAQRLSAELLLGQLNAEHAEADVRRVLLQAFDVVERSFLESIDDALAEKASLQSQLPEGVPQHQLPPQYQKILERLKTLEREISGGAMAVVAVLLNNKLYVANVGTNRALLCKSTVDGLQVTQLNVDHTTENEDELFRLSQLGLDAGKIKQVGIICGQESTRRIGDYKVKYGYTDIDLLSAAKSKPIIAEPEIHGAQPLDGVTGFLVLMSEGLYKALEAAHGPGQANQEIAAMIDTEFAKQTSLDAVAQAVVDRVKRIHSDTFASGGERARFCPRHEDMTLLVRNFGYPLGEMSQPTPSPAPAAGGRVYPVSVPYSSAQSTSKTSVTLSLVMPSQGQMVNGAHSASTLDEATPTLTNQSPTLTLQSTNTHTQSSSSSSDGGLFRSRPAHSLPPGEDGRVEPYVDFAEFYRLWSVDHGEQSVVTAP
# [1] = system: Lymphoma cell lines carrying the t(14;18) chromosomal translocation; test: AlamarBlue proliferation assay, Example 2; type: cell-based; details: t(14;18) lymphoma cell lines, 72 hours, 0 to 30 μmoles/L, FIG. 3
# Method: The chemical name of the compound is 3-[(aminocarbonyl)amino]-5-(4-{[4-(2-methoxyethyl)piperazin-1-yl]methyl}phenyl)thiophene-2-carboxamide.
# More specifically, cell lines (OCI-LY19, DOHH2, Karpas231, WSU-NHL and SUDHL4 carry the t(14;18) translocation) were plated at 10,000 cells/well in flat-bottomed 96 well plates and dosed with test compounds in triplicate over a 10 point dosing range from 0 to 30 μmolesL^−1. All cell lines were incubated with test compounds for a total of 72 hours. Background levels were determined for a control (undosed) plate within 2 hours of dosing test compounds. Following the dosing period, the extent of proliferation was measured by adding 1/10 (vol/vol) AlamarBlue reagent to every well and incubating the plates for a further 4 hours. The reaction was stopped by the addition of SDS to a final concentration of 0.1%. Fluorescence was measured at 545 nm (excitation) and 600 nm (emission). GI50 values were determined for each test compound across the panel.
# IM-9 = test: AlamarBlue proliferation assay, GI50; type: cell-based; details: Homo sapiens, 72 hours, Table 8, read-out: GI50 IM-9 B lymphoblastoid
# Method: as §1
# (§2) The experiments to generate the results for both Tables 5 and 6 were performed as described above.
# WSU DLCL2 = test: AlamarBlue proliferation assay, GI50; type: cell-based; details: Homo sapiens, WSUDLCL2, 72 hours, Table 7, read-out: GI50 WSU-DLCL B cell lymphoma
# Method: as §1, §2
# JJN-3 = test: AlamarBlue proliferation assay, GI50; type: cell-based; details: Homo sapiens, 72 hours, Table 8, read-out: GI50 JJN-3 plasma cell leukemia
# Method: as §1, §2
# JVM-3 = test: AlamarBlue proliferation assay, GI50; type: cell-based; details: Homo sapiens, 72 hours, Table 7, read-out: GI50 JVM-3 B-PLL
# Method: as §1, §2
# L-363 = test: AlamarBlue proliferation assay, GI50; type: cell-based; details: Homo sapiens, 72 hours, Table 8, read-out: GI50 L-363 plasma cell leukemia
# Method: as §1, §2
# AM0-1 = test: AlamarBlue proliferation assay, GI50; type: cell-based; details: Homo sapiens, 72 hours, Table 8, read-out: GI50 AM0-1 plasmacytoma
# Method: as §1, §2
# RPMI-8226 = test: AlamarBlue proliferation assay, GI50; type: cell-based; details: Homo sapiens, 72 hours, Table 8, read-out: GI50 RPMI-8226 M.M
# Method: as §1, §2
# MOLP-8 = test: AlamarBlue proliferation assay, GI50; type: cell-based; details: Homo sapiens, 72 hours, Table 8, read-out: GI50 MOLP-8 Multiple myeloma
# Method: as §1, §2
# JEKO-1 = test: AlamarBlue proliferation assay, GI50; type: cell-based; details: Homo sapiens, 72 hours, Table 7, read-out: GI50 JEKO-1 MCL
# Method: as §1, §2
# [2] = Table 4, read-out: GI50 DOHH2 FL
# [3] = Table 4, read-out: GI50 Karpas231 B-ALL
# [4] = Table 4, read-out: GI50 SUDHL4 DLBCL
# [5] = Table 4, read-out: GI50 MEC1 B-CLL
# [6] = Table 4, read-out: GI50 OCI-LY19 DLBCL
# [7] = Table 4, read-out: GI50 ARH77 Plasma cell leukemia
SMILES,GI50 (DOHH2; [2]),GI50 (KG1a),GI50 (Jurkat),GI50 (Karpas231; [3]),GI50 (SUDHL4; [4]),GI50 (MEC1; [5]),GI50 (OCI-LY19; [6]),GI50 (ARH77; [7]),GI50 (WSU-NHL),GI50 (HEL92.1.7),GI50 (Raji),IC50 (TAK1),also measured
"NC(=O)Nc1sc(-c2ccc(CN3CCOCC3)cc2)cc1C(N)=O [Compound 1, 2-[(aminocarbonyl)amino]-5-[4-(morpholin-4-ylmethyl)phenyl]thiophene-3-carboxamide]",127 nM,450 nM,15900 nM,300 nM,6390 nM,1340 nM,124 nM,1170 nM,370 nM,730 nM,15200 nM,126 nM,
"NC(=O)Nc1cc(-c2ccc(CN3CCOCC3)cc2)sc1C(N)=O [Compound 3, 3-[(aminocarbonyl)amino]-5-[4-(morpholin-4-ylmethyl)phenyl]thiophene-2-carboxamide]",175 nM,430 nM,> 30000 nM,160 nM,2720 nM,630 nM,85 nM,480 nM,420 nM,500 nM,> 30000 nM,100 nM,
"COCCN1CCN(Cc2ccc(-c3cc(NC(N)=O)c(C(N)=O)s3)cc2)CC1 [TAK1 inhibitor, 3-[(aminocarbonyl)amino]-5-(4-{[4-(2-methoxyethyl)piperazin-1-yl]methyl}phenyl)thiophene-2-carboxamide]",,,,,,,,,,,,,sensitivity of cell lines to TAK1 inhibitor [1]: sensitive
"CC(c1ccc(-c2cc(C(N)=O)c(NC(N)=O)s2)cc1)N1CCCCC1 (stereo not shown) [Compound 2, 2-[(aminocarbonyl)amino]-5-[4-(1-piperidin-1-ylethyl)phenyl]thiophene-3-carboxamide]",14 nM,400 nM,4390 nM,140 nM,2420 nM,160 nM,5 nM,250 nM,250 nM,170 nM,3500 nM,50.1 nM,
"COc1cc(O)c2c(c1)/C=C/C[C@H](O)[C@H](O)C(=O)/C=C\C[C@H](C)OC2=O [LL-Z-1640-2, (3S,5Z,8S,9S,11E)-8,9,16-trihydroxy-14-methoxy-3-methyl-3,4,9,10-tetrahydro-1H-2-benzoxacyclotetradecine-1,7(8H)-dione, reference compound]",,,,,,,,,,,,,"GI50 (DOHH2; Table 7, read-out: GI50 DOHH2 FL): 390 nM; GI50 (Karpas231; Table 7, read-out: GI50 KARPAS231 B-ALL): 950 nM; GI50 (SUDHL4; Table 7, read-out: GI50 SUDHL4 DLBCL): 1640 nM; GI50 (MEC1; Table 7, read-out: GI50 MEC1 B-CLL): 730 nM; GI50 (OCI-LY19; Table 7, read-out: GI50 OCI-LY19 DLBCL): 230 nM; GI50 (ARH77; Table 8, read-out: GI50 ARH-77 plasma cell leukemia): 1240 nM; GI50 (IM-9): 20 nM; GI50 (WSU DLCL2): 20 nM; GI50 (JJN-3): ≥ 32400 nM; GI50 (JVM-3): 710 nM; GI50 (L-363): ≥ 32400 nM; GI50 (AM0-1): 570 nM; GI50 (RPMI-8226): 1410 nM; GI50 (MOLP-8): 10400 nM; GI50 (JEKO-1): 70 nM"
